Results as given in patent US9493461B2, “Tetracyclic heterocycle compounds and methods of use thereof for the treatment of hepatitis C” (priority 2013, dated 2016).
pIC50: −log10 of the molar value. Read-outs that look alike come from different tables or passages of the source.

Tests used:
HCV replicon genotype 1a = assay: HCV replicon assay, genotype 1a (cell ELISA for replicon-encoded NS3/4A); format: cell-based, hepatitis C virus (HCV); settings: for IC50: Hepatitis C virus, 96 h, read-out: 1a IC50 (nM), genotype 1a replicon cells, 96 hours incubation, NS3/4A ELISA readout, % of DMSO control
Description: Measurement of inhibition by compounds was performed using the HCV replicon system. Several different replicons encoding different HCV genotypes or mutations were used. In addition, potency measurements were made using different formats of the replicon assay, including different ways of measurements and different plating formats. See Jan M. Vrolijk et al., A replicons-based bioassay for the measurement of interferons in patients with chronic hepatitis C, 110 J. V[…] 201 (2003); Steven S. Carroll et al., Inhibition of Hepatitis C Virus RNA Replication by 2′-Modified Nucleoside Analogs, 278(14) J. BIOLOGICAL CHEMISTRY 11979 (2003). However, the underlying principles are common to all of these determinations, and are outlined below.
(§1) Stable neomycin phosphotransferase encoding replicons-harboring cell lines were used, so all cell lines were maintained under G418 selection prior to the assay. Potency was determined using a cell ELISA assay with an antibody to the replicons encoded NS3/4a protease. See Caterina Trozzi et al., In Vitro Selection and Characterization of Hepatitis C Virus Serine Protease Variants Resistant to an Active-Site Peptide Inhibitor, 77(6) J. Virol. 3669 (2003). To initiate an assay, replicon cells were plated in the presence of a dilution series of test compound in the absence of G418. Typically, the assays were performed in a 96-well plate formate for manual operation, or a 384-well plate format for automated assay. Replicon cells and compound were incubated for 96 hours. At the end of the assay, cells were washed free of media and compound, and the cells were then lysed. RNA was quantified indirectly through detection of replicon-encoded NS3/4A protein levels, through an ELISA-based assay with an antibody specific for NS3/4A. IC50 determinations were calculated as a percentage of a DMSO control by fitting the data to a four-parameter fit function and the data obtained is provided in the table below.
(§2) Data for selected compounds of the present invention was obtained for genotypes 1a and 1b using this method and is provided in the table below: […]

HCV replicon genotype 1b = assay: HCV replicon assay, genotype 1b (cell ELISA for replicon-encoded NS3/4A); format: cell-based, hepatitis C virus (HCV); settings: for IC50: Hepatitis C virus, 96 h, read-out: 1b IC50 (nM), genotype 1b replicon cells, 96 hours incubation, NS3/4A ELISA readout, % of DMSO control
Description: The HCV NS5B inhibitory activity of the present compounds may be tested using assays known in the art. The HCV NS5B polymerase inhibitors described herein have activities in a genotype 1b replicon assay as described in the Examples. The assay is performed by incubating a replicon harboring cell-line in the presence of inhibitor for a set period of time and measuring the effect of the inhibitor on HCV replicon replication either directly by quantifying replicon RNA level, or indirectly by measuring enzymatic activity of a co-encoded reporter enzyme such as luciferase or β-lactamase. By performing a series of such measurements at different inhibitor concentrations, the effective inhibitory concentration of the inhibitor (EC50 or EC90) is determined See Jan M. Vrolijk et al., A replicons-based bioassay for the measurement of interferons in patients with chronic hepatitis C, 110 J. VIROLOGICAL METHODS 201 (2003). Such assays may also be run in an automated format for high through-put screening. See Paul Zuck et al., A cell-based β-lactamase reporter gene assay for the identification of inhibitors of hepatitis C virus replication, 334 ANALYTICAL BIOCHEMISTRY 344 (2004).
Measurement of inhibition by compounds was performed using the HCV replicon system. Several different replicons encoding different HCV genotypes or mutations were used. In addition, potency measurements were made using different formats of the replicon assay, including different ways of measurements and different plating formats. See Jan M. Vrolijk et al., A replicons-based bioassay for the measurement of interferons in patients with chronic hepatitis C, 110 J. VIROLOGICAL METHODS 201 (2003); Steven S. Carroll et al., Inhibition of Hepatitis C Virus RNA Replication by 2′-Modified Nucleoside Analogs, 278(14) J. BIOLOGICAL CHEMISTRY 11979 (2003). However, the underlying principles are common to all of these determinations, and are outlined below.
as §1, §2

| Compound | IC50 (HCV replicon genotype 1a) [nM] | IC50 (HCV replicon genotype 1b) [nM] | pIC50 (HCV replicon genotype 1a; read-out: 1a IC50, genotype 1a replicon cells, 96 hours incubation, NS3/4A ELISA readout, % of DMSO control) | pIC50 (HCV replicon genotype 1b; read-out: 1b IC50, genotype 1b replicon cells, 96 hours incubation, NS3/4A ELISA readout, % of DMSO control) |
| --- | --- | --- | --- | --- |
| CNC(=O)c1c(-c2ccc(F)cc2)oc2cc(N(C)S(C)(=O)=O)c(-c3ccc4[nH]c(=O)n5c6ccc(F)cc6cc5c4n3)cc12 [Example 21, 5-(10-fluoro-6-oxo-5,6-dihydropyrido[3′,2′:4,5]pyrimido[1,6-a]indol-2-yl)-2-(4-fluorophenyl)-N-methyl-6-(N-methylmethylsulfonamido)benzofuran-3-carboxamide] | 7.61 | 8.74 | – | – |
| CNC(=O)c1c(-c2ccc(F)cc2)oc2cc(N(C)S(C)(=O)=O)c(-c3ccc4[nH]c(=O)n5c6cccc(F)c6cc5c4n3)cc12 [Example 22] | 4.34 | 3.42 | – | – |
| CNC(=O)c1c(-c2ccc(F)cc2)oc2cc(N(C)S(C)(=O)=O)c(-c3ccc4nc(CS(C)(=O)=O)n5c6cccc(F)c6cc5c4n3)cc12 [Example 23, 5-(11-fluoro-6-((methylsulfonyl)methyl)pyrido[3′,2′:4,5]pyrimido[1,6-a]indol-2-yl)-2-(4-fluorophenyl)-N-methyl-6-(N-methylmethylsulfonamido)benzofuran-3-carboxamide] | 1.85 | 2.98 | – | – |
| CNC(=O)c1c(-c2ccc(F)cc2)oc2cc(N(C)S(C)(=O)=O)c(-c3cc4c(cn3)nc(CS(C)(=O)=O)n3c5cccc(F)c5cc43)cc12 [Example 24] | 2.73 | 1.9 | – | – |
| CNC(=O)c1c(-c2ccc(F)cc2)oc2cc(N(C)S(C)(=O)=O)c(-c3ccc4nc(N)n5c6cccc(F)c6cc5c4n3)cc12 [Example 25, 5-(6-amino-11-fluoropyrido[3′,2′:4,5]pyrimido[1,6-a]indol-2-yl)-2-(4-fluorophenyl)-N-methyl-6-(N-methylmethylsulfonamido)benzofuran-3-carboxamide] | 245 | 145 | – | – |
| CNC(=O)c1c(-c2ccc(C)nc2)oc2cc(N(C)S(C)(=O)=O)c(-c3ccc4nc(CN5CC(F)C5)n5c6cccc(F)c6cc5c4n3)cc12 [Example 28, 5-(11-fluoro-6-((3-fluoroazetidin-1-yl)methyl)pyrido[3′,2′:4,5]pyrimido[1,6-a]indol-2-yl)-N-methyl-6-(N-methylmethylsulfonamido)-2-(6-methylpyridin-3-yl)benzofuran-3-carboxamide] | 15.2 | 5.38 | – | – |
| CNC(=O)c1c(-n2ccccc2=O)oc2cc(N(C)S(C)(=O)=O)c(-c3ccc4nc(CN5CC(F)C5)n5c6cccc(F)c6cc5c4n3)cc12 [Example 29] | 2.21 | 3.63 | – | – |
| CNC(=O)c1c(-n2ccc(C)cc2=O)oc2cc(N(C)S(C)(=O)=O)c(-c3ccc4nc(CN5CC(F)C5)n5c6cccc(F)c6cc5c4n3)cc12 [Example 30] | 2.41 | 2.32 | – | – |
| CNC(=O)c1c(-c2ccc(F)nc2)oc2cc(N(C)S(C)(=O)=O)c(-c3ccc4nc(CN5CC(F)C5)n5c6cccc(F)c6cc5c4n3)cc12 [Example 31] | 2.95 | 4.69 | – | – |
| CCn1cc(-c2oc3cc(N(C)S(C)(=O)=O)c(-c4ccc5nc(CN6CC(F)C6)n6c7cccc(F)c7cc6c5n4)cc3c2C(=O)NC)cn1 [Example 32] | 18.6 | 8.23 | – | – |
| CNC(=O)c1c(C2CC2)oc2cc(N(C)S(C)(=O)=O)c(-c3ccc4nc(CN5CC(F)C5)n5c6cccc(F)c6cc5c4n3)cc12 [Example 33] | – | – | 8.63 | 8.59 |
| CNC(=O)c1c(-c2ccc(OC)nc2)oc2cc(N(C)S(C)(=O)=O)c(-c3ccc4nc(CN5CC(F)C5)n5c6cccc(F)c6cc5c4n3)cc12 [Example 34] | 2.43 | 4.66 | – | – |
| CNC(=O)c1c(-n2ccc(C)cc2=O)oc2cc(N(C)S(C)(=O)=O)c(-c3ccc4nc(CN5CC(C)(C#N)C5)n5c6cccc(F)c6cc5c4n3)cc12 [Example 36] | 2.49 | 3.21 | – | – |
| CNC(=O)c1c(-c2ccc(F)cc2F)oc2cc(N(C)S(C)(=O)=O)c(-c3ccc4nc(CN5CC(F)C5)n5c6cccc(F)c6cc5c4n3)cc12 [Example 37] | 5.26 | 7.26 | – | – |
| CNC(=O)c1c(-c2ccc(F)cc2)oc2nc(N(C)S(C)(=O)=O)c(-c3ccc4nc(CN5CC(F)C5)n5c6cccc(F)c6cc5c4n3)cc12 [Example 38, 5-(11-fluoro-6-((3-fluoroazetidin-1-yl)methyl)pyrido[3′,2′:4,5]pyrimido[1,6-a]indol-2-yl)-2-(4-fluorophenyl)-N-methyl-6-(N-methylmethylsulfonamido)furo[2,3-b]pyridine-3-carboxamide] | 6.38 | 14.7 | – | – |
| CNC(=O)c1c(-c2ccc(F)cc2)oc2cc(N(C)S(C)(=O)=O)c(-c3ccc4ncn5c6ccccc6cc5c4c3)cc12 [Example 41, 2-(4-fluorophenyl)-5-(indolo[1,2-c]quinazolin-2-yl)-N-methyl-6-(N-methylmethylsulfonamido)benzofuran-3-carboxamide] | 2.09 | 2.57 | – | – |
| CNC(=O)c1c(-c2ccc(F)cc2)oc2cc(N(C)S(C)(=O)=O)c(-c3ccc4c(c3)-c3cc5ccccc5n3CN4S(C)(=O)=O)cc12 [Example 42, 2-(4-fluorophenyl)-N-methyl-6-(N-methylmethylsulfonamido)-5-(5-(methylsulfonyl)-5,6-dihydroindolo[1,2-c]quinazolin-2-yl)benzofuran-3-carboxamide] | 17.2 | 13.1 | – | – |
| CNC(=O)c1c(-c2ccc(F)cc2F)oc2cc(N(C)S(C)(=O)=O)c(-c3ccc4nc(CN5CC[C@@H](F)C5)n5c6cccc(F)c6cc5c4n3)cc12 [Example 44, (R)-2-(2,4-difluorophenyl)-5-(11-fluoro-6-((3-fluoropyrrolidin-1-yl)methyl)pyrido[3′,2′:4,5]pyrimido[1,6-a]indol-2-yl)-N-methyl-6-(N-methylmethylsulfonamido)benzofuran-3-carboxamide] | 3.22 | 3.45 | – | – |
| CNC(=O)c1c(-c2ccc(F)cc2F)oc2cc(N(C)S(C)(=O)=O)c(-c3ccc4nc(CN5CC[C@H](F)C5)n5c6cccc(F)c6cc5c4n3)cc12 [Example 45] | 4.43 | 4.29 | – | – |
| CNC(=O)c1c(-c2ccc(F)cc2F)oc2cc(N(C)S(C)(=O)=O)c(-c3ccc4nc(CN5CCC(F)(F)C5)n5c6cccc(F)c6cc5c4n3)cc12 [Example 46] | 7.76 | 11.3 | – | – |
| CNC(=O)c1c(-c2ccc(F)cc2F)oc2cc(N(C)S(C)(=O)=O)c(-c3ccc4nc(CN5CCC(F)(F)CC5)n5c6cccc(F)c6cc5c4n3)cc12 [Example 47] | 9.67 | 11.2 | – | – |
| CNC(=O)c1c(-c2ccc(F)cc2F)oc2cc(N(C)S(C)(=O)=O)c(-c3ccc4nc(CN5CC(F)(F)C5)n5c6cccc(F)c6cc5c4n3)cc12 [Example 48] | 2.82 | 3.04 | – | – |
| CCOP(=O)(Cc1nc2ccc(-c3cc4c(C(=O)NC)c(-c5ccc(F)cc5)oc4cc3N(C)S(C)(=O)=O)nc2c2cc3c(F)cccc3n12)OCC [Example 49, diethyl ((11-fluoro-2-(2-(4-fluorophenyl)-3-(methylcarbamoyl)-6-(N-methylmethylsulfonamido)benzofuran-5-yl)pyrido[3′,2′:4,5]pyrimido[1,6-a]indol-6-yl)methyl)phosphonate] | 2.78 | 4.88 | – | – |
